# Results published in patent US20140249041A1, “Marker of Prostate Cancer” (Region Midtjylland, priority 2009, published 2014).
# How the values were obtained:
# [1] = test system: SLC18A2 expression; experiment: SLC18A2 expression by real-time PCR in cell lines after epigenetic drug treatment; assay type: cell-based
# Protocol: RNA Preparation, cDNA Synthesis and Quantitative RT-PCR Total RNA from cultured cells and prostate tissue samples was isolated with the RNeasy MinElute Cleanup Kit (Qiagen), as described elsewhere (20). First-strand cDNA synthesis was performed with SuperScript II Reverse Transcriptase (Invitrogen) using oligo(dT) priming. SLC18A2 expression was measured with TaqMan Gene Expression Assay Hs00161858_ml and TaqMan Universal PCR Master Mix on a real-time ABI PRISM 7500 Sequence Detection System (all from Applied Biosystems). For normalization, UBC expression was measured using primers 5′-GATTTGGGTCGCGGTTCTT-3′ (SEQ ID NO: 6) plus 5′-[…]-3′ (SEQ ID NO: 7) and SYBR GREEN PCR Master Mix (Applied Biosystems). All reactions were run in triplicates.
# All cell lines were grown in RPMI 1640 with L-glutamin (Gibco, Invitrogen) supplemented with 10% fetal bovine serum, 100 U/ml penicillin and 100 μg/ml streptomycin. LNCaP, PC-3, DU145, and 22rv1 cells were obtained from ATCC, BPH-1 cells from DSMZ (Braunschweig, Germany), and PNT1A cells from ECACC. PSK-1 cells were kindly provided by Dr. Adrie van Boekhoven (University of Colorado), VCaP and DuCaP cells by Dr. Kenneth Pienta (University of Michigan), and H69 and H69A cells by Dr. Marie Stampe Ostenfeld (Danish Cancer Society, Copenhagen, Denmark). Cell lines were treated with 1 μM 5-aza-2′-deoxycytidine (Sigma) for 48 h and allowed 5 days recovery in complete medium. Four cell lines were given a combination of 1 μM 5-aza-2′-deoxycytidine (48 h treatment plus 5 days recovery) and 1 mM 4-phenylbutyric acid (Sigma) (continuously for 7 days). Mock treated cells were given buffer only. Growth media were changed daily and cells harvested on day 7. All experiments were performed in duplicate and repeated 2-3 times.
# [2] = test system: SLC18A2 promoter CpG island; experiment: Bisulfite sequencing of SLC18A2 CpG island in cell lines before and after epigenetic drug treatment; assay type: cell-based; details: PSK-1 cells; 1 μM 5-aza-2′-deoxycytidine; from 69% before treatment
# Protocol: For bisulfite sequencing, genomic DNA from prostate cell lines and carefully selected 20-μm sections of fresh-frozen Tissue-tek-embedded BPH, adenocarcinoma and adjacent non-malignant prostate tissue samples was isolated using the PUREGENE DNA Purification Kit (Gentra Systems) with proteinase K treatment (100 units, 30 min, 37 C), as previously described (29). Laser-microdissection was performed as described in (31). DNA was bisulfite converted using the MethylEasy DNA Bisulfite Modification Kit (Human Molecular Signaling, Sydney, Australia). The SLC18A2 promoter CpG island was PCR amplified with TEMPase Hot Start DNA Polymerase (Ampliqon) using primers 5′-[…]-3′ (SEQ ID NO: 8) and 5′-[…]-3′ (SEQ ID NO: 9). Gel purified (illustra GFX PCR DNA and Gel Band Purification Kit; GE Healthcare) amplicons were subcloned into the pCR4-TOPO vector (Invitrogen) and several clones sequenced using M13 forward and reverse primers. Clinicopathological data from patients undergoing methylation analysis is compiled in FIG. 4.
# All cell lines were grown in RPMI 1640 with L-glutamin (Gibco, Invitrogen) supplemented with 10% fetal bovine serum, 100 U/ml penicillin and 100 μg/ml streptomycin. LNCaP, PC-3, DU145, and 22rv1 cells were obtained from ATCC, BPH-1 cells from DSMZ (Braunschweig, Germany), and PNT1A cells from ECACC. […]
compound,measurement,setting,value
Nc1ncn([C@H]2C[C@H](O)[C@@H](CO)O2)c(=O)n1 [5-aza-2′-deoxycytidine],induction of SLC18A2 expression,"[1]; H69A cells (derived adherent line), 1 μM 5-aza-2′-deoxycytidine",not observed
same,induction of SLC18A2 expression,"[1]; H69 cells, 1 μM 5-aza-2′-deoxycytidine 48 h plus 5 days recovery",induced SLC18A2 expression
same,induction of SLC18A2 expression,"[1]; PSK-1 cells, 1 μM 5-aza-2′-deoxycytidine 48 h plus 5 days recovery",induced SLC18A2 expression
same,CpG island methylation after treatment,[2],11%
